# Assay results: ChEMBL document CHEMBL1201862, “PubChem BioAssay data set” (2004)
#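 Exposure lasted 48 hours, with cells grown in 96-well plates and compounds tested at five concentrations. GI50 = concentration required for 50% inhibition of growth.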 The source made the active and inactive calls. Rule as the data show it: active = GI50 up to about 1.1 µM and inactive = higher.
# Legend:
# Test in all cases: DTP human tumour cell line panel, 48 h
# COLO 205 = test system: COLO 205
# PC-3 = test system: PC-3
# UO-31 = test system: UO-31
# SN12C = test system: SN12C
# Hs-578T = test system: Hs-578T
# NCI/ADR-RES = test system: NCI/ADR-RES
# UACC-257 = test system: UACC-257
# OVCAR-3 = test system: OVCAR-3
# SK-OV-3 = test system: SK-OV-3
# HT-29 = test system: HT-29
# T47D = test system: T47D
# DU-145 = test system: DU-145
# TK-10 = test system: TK-10
# RPMI-8226 = test system: RPMI-8226
# SNB-19 = test system: SNB-19
# HCT-15 = test system: HCT-15
# ACHN = test system: ACHN
# A498 = test system: A498
# HOP-92 = test system: HOP-92
# Malme-3M = test system: Malme-3M
SMILES,GI50 (COLO 205),GI50 (PC-3),GI50 (UO-31),GI50 (SN12C),GI50 (Hs-578T),GI50 (NCI/ADR-RES),GI50 (UACC-257),GI50 (OVCAR-3),GI50 (SK-OV-3),GI50 (HT-29),GI50 (T47D),GI50 (DU-145),GI50 (TK-10),GI50 (RPMI-8226),GI50 (SNB-19),GI50 (HCT-15),GI50 (ACHN),GI50 (A498),GI50 (HOP-92),GI50 (Malme-3M)
CC1(C)CC(=O)c2c(nc3ccc4ccccc4c3c2-c2ccc(NC(=O)CCCC(=O)Nc3ccc(-c4c5c(nc6ccc7ccccc7c46)CC(C)(C)CC5=O)cc3)cc2)C1,> 100 µM (inactive),> 100 µM (inactive),> 100 µM (inactive),> 100 µM (inactive),60.3 µM (inactive),> 100 µM (inactive),> 100 µM (inactive),> 100 µM (inactive),> 100 µM (inactive),> 100 µM (inactive),> 100 µM (inactive),> 100 µM (inactive),> 100 µM (inactive),> 100 µM (inactive),> 100 µM (inactive),> 100 µM,> 100 µM (inactive),> 100 µM (inactive),> 100 µM (inactive),–
CC(=O)Nc1ccccc1S(=O)(=O)c1c(-c2c(C)c(Cl)c(C)c(Cl)c2C)noc1C,> 100 µM (inactive),35.1 µM (inactive),> 100 µM (inactive),30.3 µM (inactive),28.6 µM (inactive),41.2 µM (inactive),60.7 µM (inactive),57.8 µM (inactive),31.7 µM (inactive),55.2 µM (inactive),68.1 µM (inactive),88.3 µM (inactive),23.3 µM (inactive),29.2 µM (inactive),26 µM (inactive),> 100 µM,55.2 µM (inactive),57 µM (inactive),–,> 100 µM (inactive)
COc1c2occc2c(N)c2ccc(=O)oc12,> 100 µM (inactive),> 100 µM (inactive),> 100 µM (inactive),> 100 µM (inactive),> 100 µM (inactive),> 100 µM (inactive),> 100 µM (inactive),> 100 µM (inactive),–,> 100 µM (inactive),> 100 µM (inactive),> 100 µM (inactive),> 100 µM (inactive),> 100 µM (inactive),> 100 µM (inactive),> 100 µM,> 100 µM (inactive),> 100 µM (inactive),> 100 µM (inactive),> 100 µM (inactive)
Brc1ccc(/N=N/N2CCCCC2)cc1,69.3 µM (inactive),35.2 µM (inactive),60 µM (inactive),57.9 µM (inactive),65.5 µM (inactive),51.3 µM (inactive),49.3 µM (inactive),42.1 µM (inactive),> 100 µM (inactive),–,42.3 µM (inactive),> 100 µM (inactive),59.2 µM (inactive),14.1 µM (inactive),> 100 µM (inactive),27.5 µM,76.6 µM (inactive),57.5 µM (inactive),33.6 µM (inactive),–
CC(C)C(O)(C(=O)OCN1C(=O)C2C3C=CC(C2C1=O)C1C2C(=O)N(COC(=O)C(O)(C(C)C)C(C)O)C(=O)C2C31)C(C)O (configuration not stated),> 100 µM (inactive),> 100 µM (inactive),> 100 µM (inactive),> 100 µM (inactive),> 100 µM (inactive),> 100 µM (inactive),–,> 100 µM (inactive),> 100 µM (inactive),> 100 µM (inactive),> 100 µM (inactive),> 100 µM (inactive),> 100 µM (inactive),> 100 µM (inactive),> 100 µM (inactive),> 100 µM,> 100 µM (inactive),39.7 µM (inactive),–,> 100 µM (inactive)
Nc1nc(=O)c(/N=N/c2ccc([As](=O)(O)O)cc2)c(N)[nH]1,> 100 µM (inactive),> 100 µM (inactive),> 100 µM (inactive),> 100 µM (inactive),> 100 µM (inactive),> 100 µM (inactive),> 100 µM (inactive),> 100 µM (inactive),> 100 µM (inactive),> 100 µM (inactive),> 100 µM (inactive),> 100 µM (inactive),> 100 µM (inactive),> 100 µM (inactive),> 100 µM (inactive),> 100 µM,> 100 µM (inactive),> 100 µM (inactive),–,> 100 µM (inactive)
NCCCN(CCCCN(CCCN)C(=O)OCc1ccccc1)C(=O)OCc1ccccc1,> 100 µM (inactive),45.8 µM (inactive),> 100 µM (inactive),> 100 µM (inactive),20.6 µM (inactive),> 100 µM (inactive),93.5 µM (inactive),43.2 µM (inactive),> 100 µM (inactive),> 100 µM (inactive),> 100 µM (inactive),> 100 µM (inactive),> 100 µM (inactive),73.3 µM (inactive),81.8 µM (inactive),> 100 µM,> 100 µM (inactive),> 100 µM (inactive),29.9 µM (inactive),–
O=C1NC2(CCNCC2)Oc2ccccc21,> 100 µM (inactive),> 100 µM (inactive),> 100 µM (inactive),> 100 µM (inactive),> 100 µM (inactive),> 100 µM (inactive),> 100 µM (inactive),> 100 µM (inactive),> 100 µM (inactive),> 100 µM (inactive),> 100 µM (inactive),> 100 µM (inactive),> 100 µM (inactive),> 100 µM (inactive),> 100 µM (inactive),> 100 µM,> 100 µM (inactive),–,> 100 µM (inactive),> 100 µM (inactive)
COP(=O)(Cc1ccccc1)Cc1ccccc1,> 100 µM (inactive),> 100 µM (inactive),> 100 µM (inactive),> 100 µM (inactive),> 100 µM (inactive),> 100 µM (inactive),> 100 µM (inactive),–,> 100 µM (inactive),> 100 µM (inactive),> 100 µM (inactive),> 100 µM (inactive),> 100 µM (inactive),> 100 µM (inactive),> 10 µM (inactive),> 100 µM,> 100 µM (inactive),–,–,> 100 µM (inactive)
CCOC(=O)/C(C(=O)Nc1ccc(Cl)cc1)=C(/N)N1CCOCC1,> 100 µM (inactive),> 100 µM (inactive),–,> 100 µM (inactive),> 100 µM (inactive),> 100 µM (inactive),> 100 µM (inactive),> 100 µM (inactive),> 100 µM (inactive),> 100 µM (inactive),> 100 µM (inactive),> 100 µM (inactive),> 100 µM (inactive),> 100 µM (inactive),> 100 µM (inactive),> 100 µM,> 100 µM (inactive),> 100 µM (inactive),–,> 100 µM (inactive)
CCOC(=O)/C=C/CC(C)(C)COC(C)=O,–,> 10 µM (inactive),> 10 µM (inactive),> 10 µM (inactive),0.406 µM (active),> 10 µM (inactive),> 10 µM (inactive),> 10 µM (inactive),> 10 µM (inactive),–,> 10 µM (inactive),7.43 µM (inactive),> 10 µM (inactive),> 10 µM (inactive),–,> 10 µM,6.75 µM (inactive),–,–,–
COc1cc(CC(C)NC(C)=O)cc(OC)c1 (configuration not stated),> 100 µM (inactive),> 100 µM (inactive),> 100 µM (inactive),> 100 µM (inactive),> 100 µM (inactive),> 100 µM (inactive),> 100 µM (inactive),> 100 µM (inactive),> 100 µM (inactive),> 100 µM (inactive),> 100 µM (inactive),> 100 µM (inactive),> 100 µM (inactive),> 100 µM (inactive),> 100 µM (inactive),> 100 µM,> 100 µM (inactive),> 100 µM (inactive),–,> 100 µM (inactive)
COc1ccc(OC)c2c(C(C)=O)cccc12,> 100 µM (inactive),> 100 µM (inactive),> 100 µM (inactive),> 100 µM (inactive),88.9 µM (inactive),> 100 µM (inactive),> 100 µM (inactive),> 100 µM (inactive),> 100 µM (inactive),–,> 100 µM (inactive),> 100 µM (inactive),> 100 µM (inactive),> 100 µM (inactive),> 100 µM (inactive),> 100 µM,> 100 µM (inactive),> 100 µM (inactive),–,> 100 µM (inactive)
CC1=CC(=O)c2ccc(C)cc2C1=O [CHIMAPHILIN],16.3 µM (inactive),11.6 µM (inactive),11.4 µM (inactive),19.1 µM (inactive),20.5 µM (inactive),10.4 µM (inactive),12.9 µM (inactive),11.8 µM (inactive),16.9 µM (inactive),38.6 µM (inactive),2.91 µM (inactive),16.8 µM (inactive),19 µM (inactive),1.77 µM (inactive),16.1 µM (inactive),12.7 µM,7.45 µM (inactive),17.6 µM (inactive),1.85 µM (inactive),–
Oc1ccc(/C=N/N=c2\[nH][nH]/c(=N\N=C\c3ccc(O)cc3O)c3ccccc23)c(O)c1,0.581 µM (active),0.375 µM (active),0.388 µM (active),0.308 µM (active),0.29 µM (active),0.427 µM (active),0.428 µM (active),0.185 µM (active),0.428 µM (active),0.331 µM (active),0.271 µM (active),0.338 µM (active),–,0.3 µM (active),0.473 µM (active),0.244 µM,0.21 µM (active),–,–,–
CC(=O)OCC1(CNc2nc(N)ncc2C#N)CC(CCc2ccccc2)C1 (configuration not stated),75.3 µM (inactive),> 100 µM (inactive),10.7 µM (inactive),> 100 µM (inactive),23.9 µM (inactive),10.3 µM (inactive),> 100 µM (inactive),–,–,> 100 µM (inactive),13.3 µM (inactive),32.1 µM (inactive),> 10 µM (inactive),–,–,> 100 µM,28.4 µM (inactive),21.9 µM (inactive),2.45 µM (inactive),> 100 µM (inactive)
